The target of one test is PDE3A (h) (Homo sapiens, UniProt Q14432). As to the kind of experiment: SafetyScreen44 enzyme assay PDE3A (h). The format is biochemical. To be noted: read-out: % Inhibition of Control Values. The text has this: (§1) This panel included 38 binding assays and six functional assays of well-established targets and pathways that lead to off-target adverse drug reactions.
The target in another test is human AChE (Homo sapiens, UniProt P22303). The format is biochemical.
In test [1] the target is eel acetylcholinesterase (AChE) (Electrophorus electricus, UniProt O42275). As to the kind of experiment: Eel AChE fluorescence assay (AMPLEX Red kit). Format: biochemical. How it is done: Enzymatic reactions consisted of 50 μM acetylcholine, 200 μM AIVIPLEX™ Red reagent, 1 U/mL horseradish peroxidase, 0.1 U/mL choline oxidase and 0.096 U/mL acetylcholinesterase, with 30 1% DMSO. […] Control reactions lacking acetylcholinesterase but containing 5 μM H2O2 in presence of compounds were analyzed at the same wavelength to exclude compounds that display assay interference. Dose-response curves were performed in duplicate.
Sequence of eel acetylcholinesterase (AChE) (O42275 24-633): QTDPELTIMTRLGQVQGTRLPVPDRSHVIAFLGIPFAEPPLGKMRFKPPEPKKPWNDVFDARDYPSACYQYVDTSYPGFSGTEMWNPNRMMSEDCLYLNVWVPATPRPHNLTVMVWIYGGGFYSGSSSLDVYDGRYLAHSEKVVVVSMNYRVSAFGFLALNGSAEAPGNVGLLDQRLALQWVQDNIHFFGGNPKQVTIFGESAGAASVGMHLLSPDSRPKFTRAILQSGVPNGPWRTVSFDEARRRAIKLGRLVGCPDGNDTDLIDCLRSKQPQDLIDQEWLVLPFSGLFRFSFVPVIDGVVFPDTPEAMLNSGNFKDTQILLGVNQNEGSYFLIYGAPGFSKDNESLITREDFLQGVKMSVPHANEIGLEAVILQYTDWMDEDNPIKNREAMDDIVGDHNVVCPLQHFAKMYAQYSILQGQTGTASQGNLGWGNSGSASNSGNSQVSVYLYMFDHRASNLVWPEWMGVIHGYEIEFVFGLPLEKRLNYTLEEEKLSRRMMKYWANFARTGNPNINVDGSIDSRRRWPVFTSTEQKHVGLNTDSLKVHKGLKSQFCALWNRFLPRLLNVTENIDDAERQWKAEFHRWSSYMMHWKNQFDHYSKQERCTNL

For another test, the target named is Lck kinase (h) (Homo sapiens, UniProt P06239). Briefly: SafetyScreen44 enzyme assay Lck kinase (h). To be noted: read-out: % Inhibition of Control Values. The format is biochemical.
Text: as §1

The next test has as its system NMDA. Briefly: SafetyScreen44 binding assay NMDA. To be noted: at 1 μM; antagonist radioligand.
Text: as §1

For a further test, the target named is GR (h) (Homo sapiens, UniProt P04150). As to the kind of experiment: SafetyScreen44 binding assay GR (h). The note with it: agonist radioligand, read-out: % Inhibition of Specific Control Binding.
Sequence of GR (h) (P04150 whole entry): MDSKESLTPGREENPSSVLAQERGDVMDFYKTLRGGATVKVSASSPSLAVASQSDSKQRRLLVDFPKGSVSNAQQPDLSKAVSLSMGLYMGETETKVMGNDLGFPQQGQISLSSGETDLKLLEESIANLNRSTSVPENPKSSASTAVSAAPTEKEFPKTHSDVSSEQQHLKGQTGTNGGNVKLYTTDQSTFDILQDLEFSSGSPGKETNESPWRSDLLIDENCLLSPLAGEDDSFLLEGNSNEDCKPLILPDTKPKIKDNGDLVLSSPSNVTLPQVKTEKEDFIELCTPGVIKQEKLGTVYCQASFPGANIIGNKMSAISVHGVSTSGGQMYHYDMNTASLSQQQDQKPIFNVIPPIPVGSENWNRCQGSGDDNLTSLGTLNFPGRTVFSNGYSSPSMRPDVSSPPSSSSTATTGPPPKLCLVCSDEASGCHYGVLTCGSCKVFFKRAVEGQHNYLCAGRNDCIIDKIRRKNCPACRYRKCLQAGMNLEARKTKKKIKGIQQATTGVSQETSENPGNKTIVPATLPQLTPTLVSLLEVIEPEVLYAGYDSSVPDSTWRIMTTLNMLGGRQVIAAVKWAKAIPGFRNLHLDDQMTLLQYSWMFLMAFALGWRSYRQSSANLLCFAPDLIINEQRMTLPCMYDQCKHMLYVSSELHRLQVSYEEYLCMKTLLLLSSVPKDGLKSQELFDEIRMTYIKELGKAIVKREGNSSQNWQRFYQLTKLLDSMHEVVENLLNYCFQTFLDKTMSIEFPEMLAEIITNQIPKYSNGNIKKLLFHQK
Text: as §1

The target of a further test is beta 2 (h) (Homo sapiens, UniProt P07550). As to the kind of experiment: SafetyScreen44 binding assay beta 2 (h). The note with it: antagonist radioligand, read-out: % Inhibition of Specific Control Binding.
Sequence of beta 2 (h) (P07550 whole entry): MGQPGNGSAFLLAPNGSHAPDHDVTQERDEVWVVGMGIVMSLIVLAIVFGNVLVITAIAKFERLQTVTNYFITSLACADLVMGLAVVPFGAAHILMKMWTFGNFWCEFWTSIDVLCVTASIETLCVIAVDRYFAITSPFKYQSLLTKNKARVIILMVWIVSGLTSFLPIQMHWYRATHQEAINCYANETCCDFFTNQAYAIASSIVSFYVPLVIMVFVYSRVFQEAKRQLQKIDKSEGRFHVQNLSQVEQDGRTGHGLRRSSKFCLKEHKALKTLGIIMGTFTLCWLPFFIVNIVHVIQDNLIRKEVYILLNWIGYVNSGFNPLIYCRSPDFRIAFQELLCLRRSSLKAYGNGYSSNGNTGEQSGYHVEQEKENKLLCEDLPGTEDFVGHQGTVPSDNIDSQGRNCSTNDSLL
Text: as §1

Another test concerns the target 5-HT transporter (h) (Homo sapiens, UniProt P31645). As to the kind of experiment: SafetyScreen44 binding assay 5-HT transporter (h). The note with it: antagonist radioligand, read-out: % Inhibition of Specific Control Binding.
Text: as §1

The next test addresses PDE4D2 (h) (Homo sapiens, UniProt Q08499). As to the kind of experiment: SafetyScreen44 enzyme assay PDE4D2 (h). The format is biochemical. To be noted: read-out: % Inhibition of Control Values.
Text: as §1

The target in the next test is kappa (h) (KOP) (Homo sapiens, UniProt P41145). As to the kind of experiment: SafetyScreen44 binding assay kappa (h) (KOP). To be noted: agonist radioligand, read-out: % Inhibition of Specific Control Binding.
Sequence of kappa (h) (KOP) (P41145 whole entry): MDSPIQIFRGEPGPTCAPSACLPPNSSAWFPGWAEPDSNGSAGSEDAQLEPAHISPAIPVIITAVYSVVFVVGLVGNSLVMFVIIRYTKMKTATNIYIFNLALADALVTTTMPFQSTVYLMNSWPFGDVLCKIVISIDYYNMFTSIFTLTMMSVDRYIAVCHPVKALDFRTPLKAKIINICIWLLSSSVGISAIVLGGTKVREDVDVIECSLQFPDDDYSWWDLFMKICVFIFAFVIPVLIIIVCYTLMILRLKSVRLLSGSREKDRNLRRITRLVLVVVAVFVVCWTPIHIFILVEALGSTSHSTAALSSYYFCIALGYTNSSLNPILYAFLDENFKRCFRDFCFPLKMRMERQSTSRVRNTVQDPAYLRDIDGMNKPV
Text: as §1

In a further test the target is H2 (h) (Homo sapiens, UniProt P25021). Briefly: SafetyScreen44 binding assay H2 (h). To be noted: antagonist radioligand, read-out: % Inhibition of Specific Control Binding.
Sequence of H2 (h) (P25021 whole entry): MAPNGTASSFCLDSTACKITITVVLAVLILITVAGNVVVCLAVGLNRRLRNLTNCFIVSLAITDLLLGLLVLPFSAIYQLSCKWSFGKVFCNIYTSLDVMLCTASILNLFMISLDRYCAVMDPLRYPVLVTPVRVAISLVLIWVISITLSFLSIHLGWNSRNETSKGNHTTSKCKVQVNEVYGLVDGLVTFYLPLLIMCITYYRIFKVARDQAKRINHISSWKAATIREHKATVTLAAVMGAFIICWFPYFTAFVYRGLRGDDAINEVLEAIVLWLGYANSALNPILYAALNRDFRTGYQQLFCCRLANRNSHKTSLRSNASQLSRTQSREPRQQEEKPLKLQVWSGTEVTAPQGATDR
Text: as §1

The target in the next test is COX1(h) (Homo sapiens, UniProt P23219). Briefly: SafetyScreen44 enzyme assay COX1(h). Format: biochemical. The note with it: read-out: % Inhibition of Control Values.
Sequence of COX1(h) (P23219 24-599): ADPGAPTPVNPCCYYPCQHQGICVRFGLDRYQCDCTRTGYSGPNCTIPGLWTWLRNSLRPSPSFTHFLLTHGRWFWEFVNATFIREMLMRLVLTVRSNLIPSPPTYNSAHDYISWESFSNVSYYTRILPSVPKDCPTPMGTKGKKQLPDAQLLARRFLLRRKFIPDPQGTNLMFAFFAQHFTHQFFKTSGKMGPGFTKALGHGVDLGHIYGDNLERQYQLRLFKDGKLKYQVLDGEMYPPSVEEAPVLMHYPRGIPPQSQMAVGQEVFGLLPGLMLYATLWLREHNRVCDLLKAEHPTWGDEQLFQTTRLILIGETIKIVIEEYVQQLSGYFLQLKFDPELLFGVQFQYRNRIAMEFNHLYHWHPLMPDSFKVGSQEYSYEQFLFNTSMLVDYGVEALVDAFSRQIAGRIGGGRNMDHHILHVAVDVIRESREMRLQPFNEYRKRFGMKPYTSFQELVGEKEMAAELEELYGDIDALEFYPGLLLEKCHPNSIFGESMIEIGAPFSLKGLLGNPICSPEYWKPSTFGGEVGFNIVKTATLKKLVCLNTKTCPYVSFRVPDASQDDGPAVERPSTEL
Text: as §1

In another test the test system is Na+ channel (site 2). Briefly: SafetyScreen44 binding assay Na+ channel (site 2). The note with it: at 1 μM; antagonist radioligand.
Text: as §1

Read-outs that look alike come from different tables or passages of the source.

The term inhibition denotes the relative decrease from the control value, in per cent. What is called IC50 is the concentration needed to halve the response being measured.

Sequence of human AChE (P22303 32-614): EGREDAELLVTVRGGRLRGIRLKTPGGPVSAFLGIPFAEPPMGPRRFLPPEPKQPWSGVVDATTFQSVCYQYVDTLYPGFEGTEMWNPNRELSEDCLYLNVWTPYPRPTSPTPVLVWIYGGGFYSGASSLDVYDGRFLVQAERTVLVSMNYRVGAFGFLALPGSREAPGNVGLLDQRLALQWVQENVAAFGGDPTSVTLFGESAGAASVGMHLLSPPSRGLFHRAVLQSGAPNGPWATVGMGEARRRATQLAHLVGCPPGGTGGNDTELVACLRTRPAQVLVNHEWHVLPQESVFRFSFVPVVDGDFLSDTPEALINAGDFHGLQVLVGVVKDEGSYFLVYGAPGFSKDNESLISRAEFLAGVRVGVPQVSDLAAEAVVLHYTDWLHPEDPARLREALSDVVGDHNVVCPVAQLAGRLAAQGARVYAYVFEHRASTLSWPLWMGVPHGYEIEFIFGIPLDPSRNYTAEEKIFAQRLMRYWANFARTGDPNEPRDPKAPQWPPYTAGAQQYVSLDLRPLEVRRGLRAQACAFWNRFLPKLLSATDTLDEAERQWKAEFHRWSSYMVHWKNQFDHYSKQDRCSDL
Sequence of PDE4D2 (h) (Q08499 303-809): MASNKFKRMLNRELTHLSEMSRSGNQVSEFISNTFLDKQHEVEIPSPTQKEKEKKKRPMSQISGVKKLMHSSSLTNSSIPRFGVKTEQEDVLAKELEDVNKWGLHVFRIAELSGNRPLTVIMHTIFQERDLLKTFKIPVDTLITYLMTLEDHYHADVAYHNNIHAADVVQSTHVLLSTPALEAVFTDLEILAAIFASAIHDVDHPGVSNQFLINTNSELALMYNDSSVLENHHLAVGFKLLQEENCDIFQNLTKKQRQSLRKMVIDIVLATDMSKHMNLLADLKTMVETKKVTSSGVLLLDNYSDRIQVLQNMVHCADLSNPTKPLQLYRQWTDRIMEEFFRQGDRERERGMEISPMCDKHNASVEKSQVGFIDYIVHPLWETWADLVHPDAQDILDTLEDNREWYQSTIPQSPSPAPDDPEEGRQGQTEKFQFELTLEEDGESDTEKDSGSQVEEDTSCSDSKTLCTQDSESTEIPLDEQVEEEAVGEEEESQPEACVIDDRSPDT
Sequence of 5-HT transporter (h) (P31645 whole entry): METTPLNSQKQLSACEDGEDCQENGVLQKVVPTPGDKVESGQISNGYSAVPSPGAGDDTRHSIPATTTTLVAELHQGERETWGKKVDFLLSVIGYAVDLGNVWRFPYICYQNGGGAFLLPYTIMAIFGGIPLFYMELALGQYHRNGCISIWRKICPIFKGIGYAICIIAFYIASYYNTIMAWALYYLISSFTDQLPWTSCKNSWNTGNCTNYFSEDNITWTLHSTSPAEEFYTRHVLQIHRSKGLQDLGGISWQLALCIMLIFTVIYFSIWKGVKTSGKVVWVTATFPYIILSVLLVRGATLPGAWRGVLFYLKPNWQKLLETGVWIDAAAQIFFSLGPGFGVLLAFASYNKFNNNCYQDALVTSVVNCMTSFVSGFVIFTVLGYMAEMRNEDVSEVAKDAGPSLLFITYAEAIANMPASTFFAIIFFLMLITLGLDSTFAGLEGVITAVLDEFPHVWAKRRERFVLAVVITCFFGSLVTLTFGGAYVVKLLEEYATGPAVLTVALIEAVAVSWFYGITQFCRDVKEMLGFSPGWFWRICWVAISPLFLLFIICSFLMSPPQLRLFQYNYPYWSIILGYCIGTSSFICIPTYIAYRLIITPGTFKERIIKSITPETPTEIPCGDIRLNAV

As for `CCN(CC)CCOc1ccc2c(c1)C(=O)c1cc(OCCN(CC)CC)ccc1-2` [tilorone], the inhibition at 1 µM is 2% at PDE3A (h); 13% at Lck kinase (h); -5% at GR (h); -6% at beta 2 (h); 44% on 5-HT transporter (h); -15% on PDE4D2 (h). For the same compound, the inhibition at 1 µM on kappa (h) (KOP) was 4%; at H2 (h), -11%; at COX1(h), -17%. In addition, at human AChE (% Inhibition of Control Values), the “Bottom of curve, Eurofins human AChE” value is reported as −7. Also, on human AChE (% Inhibition of Control Values), the “Top of curve, Eurofins human AChE” value worked out at 99. Further, the IC50 turned out to be 56 nM on human AChE (third-party photometric assay, read-out: IC50 against human AChE (Eurofins Discovery)) and 14.4 nM in [1] (dose-response, 1% DMSO). Also, the “Hill slope, Eurofins human AChE curve” value at human AChE (two-fold dilution from 5 μM) stood at 1.0. The inhibition at 20 µM is 103% in test [1] (eel AChE activity, at 20 μM, read-out: Percentage inhibition) and no less than 50% in test [1] (read-out: inhibition of enzyme activity compared to DMSO control (screen)). In addition, the “assay interference test versus enzyme-free H2O2 reaction” value in [1] (parallel dose-response with 5 μM H2O2) was “likely represent true inhibition of the enzyme”. For the same compound, the “Hill slope, eel AChE dose-response” value in test [1] (sixteen-point serial dilution, four-parameter fit) amounted to 0.62. For the same compound, the “% Inhibition of Specific Control Binding” value in the test with NMDA is −10%; in the test with Na+ channel (site 2), 1%.

These data come from US20230330045A1 (priority 2020, published 2023).
